# Measurements as given in patent publication US6743822B2, “Reduction of hair growth” (The Gillette Company, priority 2001, dated 2004).
# Where “and” joins values, the source holds several entries; their conditions need not be identical. Equal entries are not always repeated. Entries after “also recorded” stand apart in the source; their conditions may differ.
# Experiments:
# [1] = tested on: Hamster flank organ hair follicles; assay: Golden Syrian Hamster hair follicle spatial mass assay (image analysis); type: in vivo
# Experimental: (§1) Hamster flank organs were treated topically with D,L-DFMO or L-DFMO with the contra-lateral side treated with the carrier vehicle without DFMO. Animals were sacrificed at the indicated time-point (4 days or 7 days) and back skins containing the flank organ were removed for analysis. Glycerin was applied to the underside of the dorsal skin of the hamster flank organ regions. Flank organ hair follicle mass and density were assessed, by imaging the region with a digital camera, and analysis of the images was performed with Ultimage/Pro (version 2.5) software by […]. This technique permitted the quantification of hair follicle mass based on particle area and number, and hair follicle density based on particle number.
# [2] = tested on: flank organ hair regrowth of Golden Syrian hamsters; assay: Golden Syrian Hamster visual efficacy assay; type: in vivo; conditions: dose 2%; for Number of animals demonstrating maximal efficacy (observation score of +3) after full three weeks of treatment / Percent of animals demonstrating maximal efficacy (observation score of +3) after full three weeks of treatment: vehicle of Example 2; for Number of animals demonstrating efficacy (score of +1 or greater) after two weeks of treatment / Percent of animals demonstrating efficacy (score of +1 or greater) after two weeks of treatment: vehicle of Example 2, blinded visual score
# Excerpt: Male intact Golden Syrian hamsters are considered acceptable models for human beard hair growth in that they display oval shaped flank organs, one on each side, each about 8 mm. in major diameter. These organs produce fine light colored hair typical of the animal pelage found on the body. In response to androgens the flank organs produce dark coarse hair similar to male human beard hair. To evaluate the effectiveness of a composition, the flank organs of each of a group of hamsters are depilated by applying a thioglycolate-based chemical depilatory (Surgex) and/or shaved. To one organ of each animal 10 μl of vehicle alone once a day is applied, while to the other organ of each animal an equal amount of vehicle containing substantially optically pure L-DFMO, substantially optically pure D-DFMO, racemic DFMO, or non-racemic DFMO including a preponderance of L-DFMO. After thirteen applications (one application per day for five days a week), the flank organs are shaved and the amount of recovered hair (hair mass) from each is weighed. For certain experiments, where indicated, the treatment period was for less than 13 applications. The reduced treatment period allowed for determination of onset in activity. Percent-reduction of hair growth is calculated by subtracting the hair mass (mg) value of the test compound treated side from the hair mass value of the vehicle treated side; the delta value obtained is then divided by the hair mass value of the vehicle treated side, and the resultant number is multiplied by 100. Visual evaluations comparing hair regrowth between the drug treated and the vehicle control site were made generally on day-8, day-15 and on day-19. These observations provide an identification of onset in activity (and thus efficacy). The assay in a ‘blinded’ study included visual observations comparing the regrowth of hair on the DFMO treated flank organ with the vehicle treated flank organ during the course of treatment. Scores were assigned from 0 to +3. 0, no difference; +1, DFMO treated shorter than vehicle treated indicating efficacy; +2, DFMO treated much shorter than vehicle treated; +3, DFMO treated nearly bald indicating maximal efficacy. […] This assay will be referred to herein as the “Golden Syrian Hamster visual efficacy” assay.
# [3] = tested on: flank organs (hair growth) of male intact Golden Syrian hamsters; assay: Golden Syrian Hamster assay (flank organ hair mass); type: in vivo; conditions: dose 0.3%, topical; for Hair Mass in mg (drug treated): vehicle of Example 2, thirteen applications; for Percent inhibition (hair mass): vehicle of Example 2, versus vehicle treated flank organ
# Excerpt: Male intact Golden Syrian hamsters are considered acceptable models for human beard hair growth in that they display oval shaped flank organs, one on each side, each about 8 mm. in major diameter. These organs produce fine light colored hair typical of the animal pelage found on the body. In response to androgens the flank organs produce dark coarse hair similar to male human beard hair. To evaluate the effectiveness of a composition, the flank organs of each of a group of hamsters are depilated by applying a thioglycolate-based chemical depilatory (Surgex) and/or shaved. To one organ of each animal 10 μl of vehicle alone once a day is applied, while to the other organ of each animal an equal amount of vehicle containing substantially optically pure L-DFMO, substantially optically pure D-DFMO, racemic DFMO, or non-racemic DFMO including a preponderance of L-DFMO. After thirteen applications (one application per day for five days a week), the flank organs are shaved and the amount of recovered hair (hair mass) from each is weighed. For certain experiments, where indicated, the treatment period was for less than 13 applications. The reduced treatment period allowed for determination of onset in activity. Percent-reduction of hair growth is calculated by subtracting the hair mass (mg) value of the test compound treated side from the hair mass value of the vehicle treated side; the delta value obtained is then divided by the hair mass value of the vehicle treated side, and the resultant number is multiplied by 100. Visual evaluations comparing hair regrowth between the drug treated and the vehicle control site were made generally on day-8, day-15 and on day-19. These observations provide an identification of onset in activity (and thus efficacy). The above-described assay will be referred to herein as the “Golden Syrian Hamster” assay The efficacy of DFMO-containing compositions containing greater than 90% L-DFMO (“L-DFMO” for purposes of the below assays), racemic DFMO (“D,L-DFMO”), and greater than 90% D-DFMO (or “D-DFMO” for purposes of the below assays) was determined using the Golden Syrian Hamster assay. The L-DFMO produced a substantially greater hair mass reduction than the D-DFMO or D,L-DFMO (Table 1). The average inhibition at the 0.3% dose for the L-, D- and D,L-DFMO was 43±6%, 19±11% and 25±9%, respectively.
# [4] = tested on: Human hair follicles in culture (facial skin); assay: Human Hair Follicle Growth assay; type: cell-based; conditions: 0.5 mM, seven days in culture
# Experimental: Hair follicles were isolated from human facial (obtained from patients who underwent face lift surgery) skin samples using fine forceps under a dissecting microscope and grown in tissue culture Williams E medium—supplemented with insulin (10 μg/ml), glutamine (2 mM), hydrocortisone ([…]) and antibiotics/antimycotics (pen/strep). Hair lengths were determined on day 0, and day 7. Human hair follicles in culture were treated with 0.5 mM concentration of L-DFMO, D-DFMO, D,L-DFMO. Controls were cultured in Williams E tissue culture medium without DFMO. The increase in hair fiber length was determined over seven days. […] Only L-DFMO produced statistically significant reduction in hair growth (p=0.003) in this time period. […] The “P” values, as determined by paired test analysis, were 0.97, 0.78 and 0.003 for the D,L-DFMO, D-DFMO and L-DFMO, respectively.
# [5] = tested on: Hamster flank organ hair follicles; assay: Golden Syrian Hamster hair follicle density assay (image analysis); type: in vivo; conditions: 7 days, dose 0.5%, vehicle of Example 2
# Experimental: as §1
# [6] = tested on: flank organs (hair growth) of Golden Syrian hamsters; assay: Twice a Week Golden Syrian Hamster assay; type: in vivo; conditions: dose 1%, 2×/wk, vehicle of Example 2
# Excerpt: Male intact Golden Syrian hamsters are considered acceptable models for human beard hair growth in that they display oval shaped flank organs, one on each side, each about 8 mm. in major diameter. These organs produce fine light colored hair typical of the animal pelage found on the body. In response to androgens the flank organs produce dark coarse hair similar to male human beard hair. To evaluate the effectiveness of a composition, the flank organs of each of a group of hamsters are depilated by applying a thioglycolate-based chemical depilatory (Surgex) and/or shaved. To one organ of each animal 10 μl of vehicle alone once a day is applied, while to the other organ of each animal an equal amount of vehicle containing substantially optically pure L-DFMO, substantially optically pure D-DFMO, racemic DFMO, or non-racemic DFMO including a preponderance of L-DFMO. After thirteen applications (one application per day for five days a week), the flank organs are shaved and the amount of recovered hair (hair mass) from each is weighed. For certain experiments, where indicated, the treatment period was for less than 13 applications. The reduced treatment period allowed for determination of onset in activity. Percent-reduction of hair growth is calculated by subtracting the hair mass (mg) value of the test compound treated side from the hair mass value of the vehicle treated side; the delta value obtained is then divided by the hair mass value of the vehicle treated side, and the resultant number is multiplied by 100. Visual evaluations comparing hair regrowth between the drug treated and the vehicle control site were made generally on day-8, day-15 and on day-19. These observations provide an identification of onset in activity (and thus efficacy). The Golden Syrian Hamster assay was modified so that the animals received a reduced treatment frequency with DFMO, namely twice per week instead of five times a week.
# [7] = 4 Days, dose 1%, vehicle of Example 2
# [8] = 7 Days, dose 0.5%, vehicle of Example 2 (Table 5)
# [9] = 7 days, dose 0.5%, vehicle of Example 2
SMILES,"Hair follicle mass as determined by image analysis: particle area (×10^6), Treated [1, 7]","Inhibition % of hair follicle mass [1, 7]","Inhibition % of hair follicle mass [1, 8]","Hair follicle mass as determined by image analysis: particle area (×10^6), Treated [1, 9]",Number of animals demonstrating maximal efficacy (observation score of +3) after full three weeks of treatment [2],Percent of animals demonstrating maximal efficacy (observation score of +3) after full three weeks of treatment [2] [%],Number of animals demonstrating efficacy (score of +1 or greater) after two weeks of treatment [2],Percent of animals demonstrating efficacy (score of +1 or greater) after two weeks of treatment [2] [%],"Percent of animals demonstrating efficacy (score of +1 or greater) after two weeks of treatment ([2]; listed as D, L-DFMO) [%]",Percent of animals demonstrating maximal efficacy (observation score of +3) after full three weeks of treatment ([2]; listed as racemic DFMO) [%],Hair Mass in mg (drug treated) [3] [mg],Percent inhibition (hair mass) [3] [%],"inhibition at 500 µM ([4]; Homo sapiens, 168 h, read-out: hair follicle growth inhibition (increase in hair fiber length, as compared to controls)) [%]",% Inhibition of Hair Follicle Density [5],Hair Mass in mg (drug treated) [6] [mg],"hair follicle growth inhibition (increase in hair fiber length, as compared to controls) [4] [%]","hair follicle mass reduction, fold greater than by D,L-DFMO ([1]; 0.5% dose, 7 days (Table 5)) [fold]","increase in efficacy (hair follicle spatial mass), fold versus D,L-DFMO ([1]; 0.5% dose, 7 days, another assay (Table 6)) [fold]","hair follicle mass reduction, fold greater than by D,L-DFMO ([1]; 1% dose, 4 days) [fold]","% Inhibition of Hair Follicle Mass ([1]; 7 days, dose 0.5%, another assay (Table 6))"
"NCCC[C@](N)(C(=O)O)C(F)F (racemic) [D,L-DFMO, α-Difluoromethylornithine]",4.89 ± 0.9 ×10^6,20% and 20 ± 9%,15% and 15 ± 13%,2.71 ± .71 ×10^6,1 out of 8,13,3 out of 8,38,38,13,1.53 ± 0.19,25±9,1 ± 12,no effect; also recorded: No Inhibition,1.74 ± 0.18,–,–,–,–,–
NCCC[C@@](N)(C(=O)O)C(F)F [D-DFMO],–,–,–,–,0 out of 8,–,2 out of 8,25,–,–,1.39 ± 0.12,19±11,–,–,1.80 ± 0.18,4±13,–,–,–,–
"NCCC[C@](N)(C(=O)O)C(F)F [L-DFMO, L-α-difluoromethylornithine]",4.23 ± 1.1 ×10^6,43% and 43 ± 9%,58% and 58 ± 11%,2.22 ± .94 ×10^6,5 out of 8,–,7 out of 8,–,–,–,1.06 ± 0.14,43±6,–,45% and 45 ± 5%,1.83 ± 0.38,36±12,~4,~4,2,41% and 41 ± 15%
